These results are taken from a melting point compilation (Tetko et al.; mined from patent text by program, amines drawn as free bases though some values may be those of a salt).

For the compound `Cc1ccc(C2c3c(C)c(N4C(=O)c5ccccc5C4=O)c(C)c(C)c3OC2(C)C)cc1` (centres undefined), the melting point (in general, the temperature, or range, at which the solid turns liquid) is 222 to 224 °C.

In turn, `Cc1cc(-c2ccccc2Cl)nn1C(C)(C)C(=O)N(C)C` registered a melting point of 104 to 106 °C.

As for `CC(=O)Nc1ccc(OC(=O)COCc2ccccc2)cc1`, the melting point lay within 106 to 109 °C.

`CC1=C(C(=O)NC(C)(C)C)C(c2ccccc2Cl)C(C(=O)NC(C)C)=C(COCCn2c(C)nc3ccccc32)N1` (centres undefined) yielded a melting point of 191 to 193 °C.

`Cc1ncccc1NC(=NC#N)NC(NC(=O)CCCCc1ccccc1)C(C)(C)C` (centres undefined) returned a melting point of 133 to 134 °C.

In turn, `CC(C)=CCNc1ncnc2nc(NCCN)[nH]c12` came in with a melting point of 96 to 102 °C.

Turning to `COc1ccc(C2CCN(c3c(C)c(C)c4c(c3C)C(Nc3ccccc3)C(C)(C)O4)CC2)cc1OC` (centres undefined), the melting point was 138 to 140 °C.

Turning to `COc1ccc(S(=O)(=O)N(CC(=O)O)CC(=O)O)cc1`, the melting point was in the range of 177 to 178 °C.

`CCOc1ccc(C2C(C(=O)c3ccc(C(C)C)cc3)=C(O)C(=O)N2c2ccc(C)nn2)cc1` (centres undefined) yielded a melting point of 279 °C.

As to `O=C(O)CCN(C1(C(=O)NO)CCCC1)S(=O)(=O)c1ccc(-c2ccc(F)cc2)cc1`, the melting point was 163 to 164 °C.

The compound `O=[N+]([O-])c1sc2ccc(Cl)cc2c1Br` displayed a melting point of 176 to 178 °C.

Compound `CC(C(=S)c1ccc(NC=O)nc1)S(C)=O` (centres undefined) displayed a melting point of 125 to 127 °C.

In the case of `COc1cccc2c1C(=O)c1c(OC)cc(-c3nnn[nH]3)cc1C2=O`, the melting point was in the range of 262 to 264 °C.

For the compound `O=[N+]([O-])c1c(Cl)ccc(S(=O)(=O)Oc2ccccc2)c1Cl`, the melting point is 91 °C.

Consider `CCCc1c(C(=O)C(C)C)c2ccc(C(=O)O)cc2n1Cc1ccccc1Br`, for which the melting point lay within 193 to 194 °C.

The compound `CS(=O)(=O)c1ccc(-c2sc(-c3ccc(F)c(Cl)c3)nc2-c2ccc(F)cc2)cc1` displayed a melting point of 165 to 167 °C.

`CC(CC(O)(C(=O)Nc1ccc2c(c1)COC2=O)C(F)(F)F)c1ccccc1` (centres undefined): the melting point was 166 to 168 °C.

On to `CCCCCCCC(=O)Oc1ccc(C(=O)O)cc1`, for which the melting point was determined as 51 °C.

The compound `COC(=O)CCc1cc2cc(C(F)(F)F)ccc2[nH]1` gave a melting point of 106 to 108 °C.

The compound `CCCCC(F)c1nc[nH]c(=O)c1Cl` (centres undefined) displayed a melting point of 157 to 160 °C.

`COC(=O)CN(C)c1cc(-c2ccc(Cl)cc2)on1` showed a melting point of 141 °C.

`COc1ccc(C(NCCc2ccccc2)c2cccc(Nc3c(N)c(=O)c3=O)c2)cc1` (centres undefined): the melting point is 174 to 176 °C.

`CCOC(=O)c1c(O)ncnc1CC` came in with a melting point of 84.5 to 86 °C.

`CCCCOCCOc1ccc(-c2ccc3c(c2)C=C(C(=O)Nc2ccc(SCc4nccn4CCCC(N)=O)cc2)CCN3CC(C)C)cc1`: the melting point was in the range of 142 to 143 °C.

Consider `O=C(Nc1ccc(N2CCOCC2)cc1)c1ccccc1C(c1ccc(O)cc1)c1ccc(O)cc1`, for which the melting point lay in the range of 151 to 155 °C.

`N#Cc1cccc(C=CC(=O)c2ccc(F)cc2)c1` registered a melting point of 170 to 172 °C.

`O=C(O)c1cn(-c2ccc(F)cc2)c(-c2ccc(N=Cc3ccc([N+](=O)[O-])o3)cc2)cc1=O` registered a melting point of 129 to 131 °C.

Consider `CCOC(=O)c1cn(-c2ccc([N+](=O)[O-])cc2)cn1`, for which the melting point fell in the range of 198 to 200 °C.

In the case of `O=C1N(Cc2ccc(C(F)F)o2)c2ccccc2C12COc1cc3c(cc12)OCCO3` (centres undefined), the melting point was 173 to 175 °C.

On to `CCOC(=O)c1c(C)nc2c(c1N)c1ccccc1n2Cc1ccccc1`, for which the melting point fell in the range of 139 to 140 °C.

`CN(C(Cc1ccc(O)cc1)CN1CCN(c2ccccc2)CC1)S(=O)(=O)c1cccc2cnccc12` (centres undefined): the melting point turned out to be 201 °C.

In the case of `O=C(CC(F)=C(F)F)NNC(=O)CC(F)=C(F)F`, the melting point is 191 to 193 °C.

On to `C[C@H]1CCCC(C)(C)[C@@H]1C(=O)c1ccc(C(F)(F)F)cc1`, for which the melting point lay in the range of 16 to 20 °C.

Regarding `COC(=O)[C@H](O)[C@@H](N)c1ccc(C(N)=O)cc1`, the melting point came out at 206 °C.

`N#CCCCCc1cccc2cncn12` had a melting point of 72 to 75 °C.

As for `O=C(O)COc1ccc2c(=O)c3c(Cl)cccc3oc2c1Cl`, the melting point is 270 to 271 °C.

In turn, `Cc1ccc(NS(=O)(=O)c2cccs2)c2[nH]c(C(=O)NCCSC(c3ccccc3)(c3ccccc3)c3ccccc3)cc12` registered a melting point of 241 to 242 °C.

`O=C1C(c2c[nH]c3ccccc23)=C(c2c[nH]c3ccccc23)C(=O)N1Cc1ccccc1`: the melting point is more than 290 °C.

The compound `NC(=O)CNC(=O)COC[C@@H]1CCCN1C(=O)OCc1ccccc1` had a melting point of 110 to 111 °C.

Consider `CS(=O)(=O)NCCn1c(=O)c(-c2cccs2)nc2ccccc21`, for which the melting point lay in the range of 236 to 237 °C.

Compound `CC(=O)c1ccc(-c2nc(=O)c3ccccc3s2)cc1` returned a melting point of 198 °C.

Consider `COc1cc2c(Oc3ccc4[nH]cc(C)c4c3)ncnc2cc1OCCCN1CCCC1`, for which the melting point was in the range of 75 to 77 °C.

`Clc1ccc(Br)c2nc(SCc3ccccc3)nn12` yielded a melting point of 122 to 124 °C.

For `c1ccc(CSc2nccn2-c2ccccn2)cc1`, the melting point fell in the range of 76 to 77 °C.

Consider `CCOC(=O)c1cccc(-c2cc3c(Nc4cccc(Cl)c4)ncnc3[nH]2)c1`, for which the melting point is more than 300 °C.

Take `CCC(C)(C)Nc1c(NCc2cc3cc(C#N)ccc3o2)c(=O)c1=O`: the melting point lay in the range of 171 to 173 °C.

Consider `CC(C)(C)OC(=O)Nc1ccc(C#Cc2ccc(Cl)cc2)cc1[N+](=O)[O-]`, for which the melting point was in the range of 213 to 218 °C.

In turn, `N#CC1(C#N)CN=C(O)C(c2cc(O)c(O)c([N+](=O)[O-])c2)=N1` had a melting point of more than 300 °C.

Compound `CN1C(=O)CC[C@]2(C)c3ccc(SC(c4ccccc4)c4ccccc4)cc3CC[C@@H]12` gave a melting point of 102 to 104 °C.

For `CN(C(=O)c1ccc2cnccc2n1)C1CCCCC1`, the melting point lay in the range of 62 to 63 °C.

As to `COCc1cc(N)n2nc(SC)c(S(=O)(=O)c3ccccc3)c2n1`, the melting point is more than 230 °C.

For `C(=Nc1ncc[nH]1)c1ccccc1`, the melting point turned out to be 122 °C.

In the case of `O=C(O)C(Cl)=C(Cl)C(O)=NCCc1ccc(F)cc1`, the melting point was in the range of 137 to 138 °C.

The compound `O=Cc1cc(N2C(=O)C3=C(CCCC3)C2=O)ccc1Cl` came in with a melting point of 140 to 141 °C.

Turning to `CC(=O)Oc1ccc2c(c1)C(C(Cl)(Cl)Cl)OC(C(Cl)(Cl)Cl)O2` (centres undefined), the melting point is 142 to 144 °C.

For `CC1(C)C2CC(=O)C(CCC(=O)O)C1C2` (centres undefined), the melting point is 45 °C.

In the case of `O=C(c1ccc2c(c1)[C@@H](O)[C@H](Br)CCO2)c1ccccc1C(F)(F)F` (relative stereo), the melting point lay within 176 to 179 °C.

`COc1ccc(C2=NN(C3CCCCCC3)C(=O)[C@H]3CC=CC[C@@H]23)c2c1OC(C)(C)C2` (relative stereo) yielded a melting point of 114 to 115 °C.

In turn, `O=C1N(Cc2sc(C(F)(F)F)cc2O)c2ccccc2C12COc1cc3c(cc12)OCO3` (centres undefined) gave a melting point of 225 to 227 °C.

`OCc1c[nH]c(Sc2ccccc2)c1` displayed a melting point of 69 to 71 °C.

In turn, `CSc1nn2c(N3CCNCC3)cc(C(C)(C)C)nc2c1S(=O)(=O)c1ccccc1` registered a melting point of 236 to 237 °C.

For the compound `CC1=NCCN1c1cnc2[nH]cc(C(=O)C(C)(C)C)c2n1`, the melting point lay in the range of 235 to 236 °C.

Regarding `CCCCCCCCN(c1c([O-])[c+](N(CCCCCCCC)C2CC(C)(C)NC(C)(C)C2)[c+]1[O-])C1CC(C)(C)NC(C)(C)C1`, the melting point is 171 to 175 °C.

In the case of `O=[N+]([O-])N=C1NCCN1Cc1ccc(OCC(F)(F)F)nc1`, the melting point lay within 109 to 112 °C.

Consider `CCCCCCCCCCCCCCCCOCCOCCOC(=O)NCc1ccccn1`, for which the melting point was in the range of 57 to 59 °C.

Regarding `CC(C)C/C=C(\C[C@H](N)C(=O)O)C(=O)O`, the melting point is 190 to 199 °C.

Turning to `CCCC(=O)OC1CC(n2cc(CC)c(=O)[nH]c2=O)OC1CNC(=O)Cc1c(Cl)cccc1Cl` (centres undefined), the melting point lay in the range of 130 to 132 °C.

Consider `CCCOc1ccc(F)cc1-c1ccc(C#N)c(=O)[nH]1`, for which the melting point lay within 242 to 243 °C.

Consider `CN(c1ccccc1C=CC1=NCCC1)C1CCCCC1`, for which the melting point was in the range of 163 to 164 °C.

In the case of `CC(C)(C)C(=O)C(=CC1CCCCC1)n1cncn1`, the melting point came out at 98 °C.

For `CC(=O)C(Cl)=NNc1ccc(C)cc1`, the melting point fell in the range of 141 to 143 °C.

The compound `O=C(NCc1ccc(Cl)cc1)c1ccc2cccnc2c1O` showed a melting point of 162 to 165 °C.

Turning to `C#Cc1cc(Cl)cc(Cl)c1`, the melting point lay within 80 to 81.5 °C.

Compound `Cc1ccc(C2=CCCNC2)nc1C` showed a melting point of 102 to 104 °C.

Consider `CCC(=O)N1C(=O)C(=O)c2cc(F)ccc21`, for which the melting point is 150 to 152 °C.

As for `CC(=O)OC1CC2CCC3C(CCC4(C)C(O)C(N5CCCCC5)CC34)C2(C)CC1N1CCCCC1` (centres undefined), the melting point is 183 °C.

Take `CCOc1ccc([N+](=O)[O-])nc1C`: the melting point fell in the range of 82 to 84 °C.

On to `CCC(C)(C)c1cccc(C(=O)NN)c1O`, for which the melting point is 156 to 157 °C.

Compound `N#Cc1ccc(N2C(=O)NC3(CCCCC3)C2=O)cc1C(F)(F)F` displayed a melting point of 187 °C.

On to `O=C(O)c1ccc(Oc2ccc(Cl)cc2)cc1`, for which the melting point lay within 161 to 164 °C.

Compound `Cc1nnc(-c2ccc3occ(-c4cc(F)ccc4F)c3c2)o1` displayed a melting point of 143 to 144 °C.

The compound `O=C1Nc2cc([N+](=O)[O-])ccc2OC1CCO` (centres undefined) came in with a melting point of 174 to 175 °C.

In turn, `COc1cc(C(C)=O)ccc1OCCCN1CCN(c2nn(C(=O)c3ccccc3)c3cccc(F)c23)CC1` came in with a melting point of 138 to 140 °C.

The compound `CCOC(=O)c1c(C)c(C(=O)C(C#N)C(=O)Nc2ccccc2)n(C)c1C` (centres undefined) came in with a melting point of 164 to 166 °C.

The compound `N#CC=C1CCN(c2ccc(N3C[C@H](CNC(=O)C(Cl)Cl)OC3=O)cc2F)CC1` had a melting point of 159 to 161 °C.

Compound `CCN1CCc2cc(Nc3ncc(Cl)c(Nc4ccccc4C(=O)NC)n3)c(OC)c(N)c2CC1` showed a melting point of 117 to 160 °C.

As to `CCOC(=O)c1cn(Cc2cnsn2)c2cc(F)c(F)cc2c1=O`, the melting point was 198 to 201 °C.

Consider `O=c1[nH]nc(Cc2ccncc2)c2c1CCCC2`, for which the melting point was in the range of 193 to 194 °C.

`COc1ccc(C2(c3nc(N)nc(N)n3)CCCCC2)cc1`: the melting point lay in the range of 159 to 163 °C.
